Marks after values point to notes of the source that are not given here.

One series has as its system C57BL/6 mice. Briefly: Fur colour scoring, chronic 8-week dosing in wild-type mice. The class given is in vivo, mouse. On the procedure: (§1) Compound 1 and NB-360 were formulated as a suspension. […] Vehicle: […] in 0.5% methylcellulose in water.
(§2) Body weight was taken 3 times per week (Monday, Wednesday, Friday). Subjective scoring of any hair colour changes was performed once weekly (Wednesday). Scores (% of body with grey fur): 0: No change; 1: Spots; 2: >30%; 3: >50%; 4: >75%; 5: 100%. Animals were photo-documented when fur color change was observed. Final fur color scoring was performed blinded and by a person not involved in the study.

Series [1] can be described thus: Body weight, chronic 8-week dosing in wild-type mice. The class given is in vivo, mouse. Particulars: C57BL/6 mice, 8 weeks chronic treatment. As for the experimental part:
as §1, §2

Series [2] is described as follows: Compound levels in blood, brain and skin of C57BL/6 mice (HPLC/MS/MS). To be noted: for AUCbrain (AUC0-24 h) / AUCventral skin (AUC0-24 h) / AUCdorsal skin (AUC0-24 h) / AUC(0-t): day 56; for AUCbrain (AUC0-24 h) / AUCventral skin (AUC0-24 h) / AUCdorsal skin (AUC0-24 h): from 4 and 24 h; for AUC(0-t): whole blood, po, AUCblood (AUC0-24 h).
Source text: Blood samples were used to analyze whole-blood compound levels and were obtained either from tail-vein during the in-life part into EDTA tubes (CB300, Sarstedt, Germany) or from trunk blood at the day of necropsy into EDTA Eppendorf tubes (Milian S A, CatNoTOM-14, Fisher Scientific, Wohlen, Switzerland), or into serum tubes (CB300Z, Sarstedt, Nümbrecht, Germany).
Brain was removed immediately after decapitation, rinsed with saline and sectioned sagitally down the midline. The left half of the cerebellum was used to analyze compound level and was placed into a glass tube (Chromacol, 125×5-SV T051, Welwyn Garden City, United Kingdom), weighed and frozen in dry-ice, the left half of the forebrain (without olfactory bulb) was used for Aβ analysis, and was frozen on a metal plate on dry ice and placed into protein Lo-bind tube (003 0108.116, Eppendorf, Hamburg, Germany).
Ventral and dorsal skin were taken to analyze compound level, weighed and frozen on dry-ice.
Brain samples were mixed with 2 volumes of KH2PO4 buffer and homogenized using the Covaris® device. Skin samples were mixed with approx. 6-fold volumes of methanol/water and homogenized using a Precellys tube. Either 30 μL of blood, brain or skin homogenate were spiked with a structurally related internal standard and subsequently mixed with an at least 6-fold excess volume acetonitrile for protein precipitation. The supernatant was injected directly into the LC/MS/MS system for analysis.
For tissue exposure, only data at 4 and 24 h were available.

For the compound `Cc1cc(C#N)cnc1C(=O)Nc1ccc(F)c([C@]2(C)CO[C@@](C)(C(F)(F)F)C(N)=N2)c1` [NB-360, N-(3-((3R,6R)-5-amino-3,6-dimethyl-6-(trifluoromethyl)-3,6-dihydro-2H-1,4-oxazin-3-yl)-4-fluorophenyl)-5-cyano-3-methylpicolinamide], the “fur discoloration reached a plateau after” value with C57BL/6 mice was found to be 5 weeks. In addition, the fur colour change entry is “slight but significant fur score change” with C57BL/6 mice (20 μmol/kg p.o. once daily, 8 weeks); “more severe and profound fur color change” in the series on C57BL/6 mice (100 μmol/kg p.o. once daily, 8 weeks). In addition, the fur discoloration result in the series on C57BL/6 mice (20 and 100 μmol/kg groups, 8 weeks) is listed as “All animals in the NB-360 group showed fur discoloration”. In the series with C57BL/6 mice (high and low dose group), the “appearance of grey patches apparent after” value is 3 weeks. The “body weight difference compared to vehicle” value in series [1] was “No overall significant body weight difference”. Moreover, the “AUCbrain (AUC0-24 h)” value in series [2] (C57BL/6, 20 μmol/kg q.d.) is 16.39 µmol·h/kg; in series [2] (C57BL/6, 100 μmol/kg q.d.), 114.45 µmol·h/kg. For the same compound, the “AUCventral skin (AUC0-24 h)” value in series [2] (C57BL/6, 20 μmol/kg q.d.) worked out at 104.81 µmol·h/kg; in series [2] (C57BL/6, 100 μmol/kg q.d.), 712.16 µmol·h/kg. The “AUCdorsal skin (AUC0-24 h)” value in series [2] (C57BL/6, 20 μmol/kg q.d., n = 2 for 24 h) is 46.9^c μmol/kg · h; in series [2] (C57BL/6, 100 μmol/kg q.d.), 294 µmol·h/kg. In addition, the Kp in series [2] (C57BL/6, mouse, brain / whole blood, oral) came out at 2.8. The AUC(0-t) in series [2] (C57BL/6, mouse, 20 umol/kg, C57BL/6, 20 μmol/kg q.d., from 1, 4, 7, 24 h time points) was 6.93 µM·h; in series [2] (C57BL/6, mouse, 20 umol/kg, C57BL/6, 20 μmol/kg q.d., from 4 and 24 h time points) it was 5.6 µM·h; in series [2] (C57BL/6, mouse, 100 umol/kg, C57BL/6, 100 μmol/kg q.d., from 1, 4, 7, 24 h time points), 35.9 µM·h; in series [2] (C57BL/6, mouse, 100 umol/kg, C57BL/6, 100 μmol/kg q.d., from 4 and 24 h time points), 25.3 µM·h.

The record behind these values is patent publication US20200345746A1, “Oxazine Derivative for Use in the Prevention of Alzheimer's Disease in at Risk Patents” (Novartis AG, priority 2016, published 2020).
